# Test results: PubChem BioAssay AID1996
# Settings: buffer; pH 7.4; 200.0 µM
row,Compound,solubility kinetic
1,O=C(NC(=O)c1ccccc1O)c1ccc(C(F)(F)F)cc1,2.3 µg/mL
2,c1ccc(COc2ccccc2CNC2CCCC2)cc1,38.5 µg/mL
3,O=S(=O)(Nc1cccc2cccnc12)c1ccccc1,3.9 µg/mL
4,O=C(Nc1ccccc1)c1ccc(-c2ccc(F)cc2)s1,< 0.6 µg/mL
5,O=C(c1ccc(COc2ccccc2Cl)o1)N1CCOCC1,34.4 µg/mL
6,Cc1cc(C)cc(OCC(=O)N2CCc3ccccc3C2)c1,31.5 µg/mL
7,CCc1cccc(NC(=O)Cn2cc(C=O)c3ccccc32)c1,0.5 µg/mL
8,Cc1cccc(C)c1OCc1cc(C(=O)NCC2CC2)no1,4.6 µg/mL
9,CCOc1ccc2oc(=O)cc(CN3CCOCC3)c2c1,41.5 µg/mL
10,CSc1ccccc1NC(=O)CN(C)C(C)C(=O)NCc1ccc2c(c1)OCO2 (stereo not given),16 µg/mL
11,N#Cc1nc(-c2ccc(Cl)cc2)oc1NCC1CCCO1 (stereo not given),2.5 µg/mL
12,Cc1csc2c(=O)sc(NC(=O)c3ccco3)nc12,4.5 µg/mL
13,O=C(CCC(=O)c1ccccc1)NCc1ccccc1,> 40.1 µg/mL
14,O=C(Nc1cc(Cl)ccc1N1CCOCC1)c1cccnc1Cl,49.7 µg/mL
15,CC1CCN(C(=O)c2ccc(S(=O)(=O)N3CCCCCC3)cc2)CC1,26 µg/mL
16,Cc1cc(N2C(=O)c3ccccc3C2=O)n(C)n1,> 36.2 µg/mL
17,N#CCSc1nc(-c2ccccc2)nc2ccccc12,< 0.2 µg/mL
18,CCn1c(SCc2ccc(OC)c(F)c2)nc2ccccc2c1=O,< 0.4 µg/mL
19,O=C(NS(=O)(=O)Nc1ccccn1)c1c[nH]c2ccccc12,> 47.4 µg/mL
20,C=CCNC(=O)CN1N=C(c2ccc(C)cc2)CCC1=O,> 42.8 µg/mL
21,Cc1cc(C=O)c(C)n1C1CC1,17.6 µg/mL
22,N#CCCN(C(=O)CSc1n[nH]c(=O)[nH]c1=O)c1ccccc1,> 49.7 µg/mL
23,O=C(Cc1ccc(Cl)cc1)NCc1nc(-c2ccccc2)no1,1.9 µg/mL
24,CN(c1ccccc1)S(=O)(=O)c1ccc2ccccc2c1,2.4 µg/mL

row,Compound,solubility kinetic
1,Cc1ccc(S(=O)(=O)N(OCc2ccccc2)C(C)C(=O)O)cc1 (stereo not given),52.1 µg/mL
2,CC(C)c1ccc(S(=O)(=O)c2cnc(=S)[nH]c2N)cc1,0.9 µg/mL
3,NS(=O)(=O)c1ccc(CNC(=O)Cc2cccs2)cc1,45.1 µg/mL
4,CCOCCCNCc1cc(Br)ccc1OCC.Cl,> 52.9 µg/mL
5,Cc1ccc(Nc2cc(C)nc3c(C)cccc23)cc1,35 µg/mL
6,C=CCNc1nc2ccccc2nc1NS(=O)(=O)c1ccc(OC)cc1,45.9 µg/mL
7,CCNCc1ccc(OCc2cccs2)c(OCC)c1,> 43.7 µg/mL
8,CNc1cc(=O)n(C)c(=O)n1-c1ccccc1,> 34.7 µg/mL
9,O=C(CN1C(=O)c2ccccc2C1=O)N(CCO)Cc1ccccc1,48.7 µg/mL
10,CN1CCN(CCCNc2c(C=O)c(=O)[nH]c3ccccc23)CC1,34.1 µg/mL
11,Cc1ccc(/C=C(\C#N)C(=O)NC(C)C)o1,> 32.7 µg/mL
12,CCOc1ccccc1NC(=O)Cn1c(=O)sc2ccccc21,1.2 µg/mL
13,O=C(Cn1cc([N+](=O)[O-])ccc1=O)N1CCc2ccccc2C1,> 47 µg/mL
14,CC1CCCN(CCC(=O)Nc2ccc(F)c(F)c2)C1 (stereo not given),> 42.3 µg/mL
15,CCOc1ccc2oc(C(=O)Nc3cc(C)ccn3)c(C)c2c1,1.2 µg/mL
16,S=C1NCN(Cc2ccco2)CN1,> 29.6 µg/mL
17,Cc1ccc(Cl)cc1NC(=O)Cn1c(C)csc1=O,16.4 µg/mL
18,CN(Cc1cccs1)C(=O)CSc1nc2ccccc2[nH]1,45 µg/mL
19,C=CCn1c(SCC(C)=O)nc2sc3c(c2c1=O)CCC3,4.6 µg/mL
20,COc1ccc(C2=NCC(=S)Nc3ccc(Cl)cc32)cc1OC,< 0.4 µg/mL
21,COc1ccccc1CNS(=O)(=O)c1ccc(Br)s1,32.4 µg/mL
22,CC(=O)NC(c1cccc([N+](=O)[O-])c1)c1ccc2cccnc2c1O (stereo not given),3.5 µg/mL
23,Cc1nc(-c2ccc(NC(=O)c3ccco3)cc2)cs1,18.2 µg/mL
24,O=C(CSc1nc2ccccc2s1)c1ccc(O)cc1O,3.3 µg/mL

row,Compound,solubility kinetic
1,COc1cc2nc(CN3CCN(S(=O)(=O)c4ccc(Br)cc4)CC3)[nH]c(=O)c2cc1OC,17.7 µg/mL
2,CC(C)(C)N(Cc1ccccc1)C(=O)COC(=O)c1ccc(N2CCCC2=O)cc1,2.5 µg/mL
3,O=C(NC(=O)c1ccccc1)OCCN1C(=O)c2ccccc2C1=O,> 50.7 µg/mL
4,Cc1ccc(NC(=O)C(C)SCc2nc3sc4c(c3c(=O)[nH]2)CCCC4)nc1 (stereo not given),29.4 µg/mL
5,O=[N+]([O-])c1cnc(Nc2ccccc2)nc1Nc1ccccc1,0.2 µg/mL
6,CC(C)OP(=O)(c1ccc(N(C)C)cc1)C(O)c1ccc(N(C)C)cc1 (stereo not given),> 56.5 µg/mL
7,Cn1c(SCC(=O)NC2CCCC2)nc2c(c1=O)SCC2,> 48.8 µg/mL
8,COC(CNC(=O)CN1CCN(Cc2ccccc2F)C1=O)OC,> 50.9 µg/mL
9,Cn1ncc(Cl)c1C(=O)N1CCN(c2ccccc2)CC1,> 45.7 µg/mL
10,CCc1cc2ccccc2nc1SCC(=O)NC1CCCC1,0.3 µg/mL
11,COc1ccc(Nc2cc(Nc3ccc(OC)cc3)ncn2)cc1,< 0.2 µg/mL
12,Cc1nc2c(c(=O)c3ccccc3n2C)c(=O)n1-c1ccc(F)cc1,13.7 µg/mL
13,Cc1ccc(S(=O)(=O)CC(=O)NCc2ccccc2)cc1,29.7 µg/mL
14,COc1ccc(Cc2noc(-c3ccc([N+](=O)[O-])cc3)n2)cc1OC,2 µg/mL
15,COC(=O)c1ccc(NC(=O)Nc2ccccc2C)cc1,4.3 µg/mL
16,CC(=O)c1ccc(S(=O)(=O)N2CCNC(=O)C2)cc1,> 42.3 µg/mL
17,Cn1ccnc1SCC(=O)N1CCc2ccccc21,38.9 µg/mL
18,CC1CCc2ccccc2N1C(=N)N(C)C.Cl (stereo not given),> 38.1 µg/mL
19,C=CCN=C1S/C(=C\N(C)C)C(=O)N1S(=O)(=O)c1ccc(C)cc1,2.8 µg/mL
20,Cc1ccc(S(=O)(=O)NCC(=O)NNC(=O)c2ccccc2Cl)cc1C,> 59.4 µg/mL
21,Cc1ccc(S(=O)(=O)NCc2ccccn2)c(C)c1C,43.2 µg/mL
22,Cc1ccc(OCCCN2C(=O)C(=O)c3cc(C)ccc32)cc1,< 0.7 µg/mL
23,COc1ccc(Nc2nc(N)c(C(=O)c3ccc(F)cc3)s2)cc1,5.2 µg/mL
24,Br.Oc1ccc(-c2cn3ccccc3n2)cc1,36.5 µg/mL

row,Compound,solubility kinetic
1,S=C(Nc1ccccc1)N1CCCCCCC1,> 37.3 µg/mL
2,Cc1nc(/C(N)=N/OC(=O)c2cccc(Cl)c2)c(C(F)(F)F)o1,> 52.2 µg/mL
3,Cc1nc(N2CCOCC2)[nH]c(=O)c1C,> 31.4 µg/mL
4,O=C(NC(=S)Nc1ccccc1Cl)c1ccco1,2.5 µg/mL
5,NS(=O)(=O)c1ccc(CNC(=O)C(c2ccccc2)c2ccccc2)cc1,56.1 µg/mL
6,CSc1nc(C)c(C(=O)C[n+]2ccccc2C)cc1C#N.[Br-],> 56.7 µg/mL
7,O=S(=O)(NCC1CCCO1)c1ccc(Cl)cc1 (stereo not given),25.5 µg/mL
8,Cl.Clc1cccc(OCCn2ccnc2)c1,> 38.9 µg/mL
9,C=C(C)Cn1c(N2CCCC2)nc2c1c(=O)n(C)c(=O)n2C,33.6 µg/mL
10,Cc1ccccc1N1CCN(C(=O)NCc2cccc(Cl)c2)CC1,3.3 µg/mL
11,Cc1ccc(C(=O)N2CCN(C(=O)c3ccc(C)cc3)C2)cc1,> 46.3 µg/mL
12,CN1CCN(c2nc3c(c(=O)[nH]c(=O)n3C)n2Cc2ccccc2)CC1,52.7 µg/mL
13,C/C(=N\N1CCN(C)CC1)c1ccc(OC(F)F)cc1,> 42.5 µg/mL
14,COc1ccc(S(=O)(=O)Nc2ccncc2)c(C)c1C,4.6 µg/mL
15,COCC(C)N1C(=O)Cc2c1nc(N)c1c(N)nc(N3CCN(c4ccccc4F)CC3)c(C#N)c21 (stereo not given),1.7 µg/mL
16,CCOC(=O)N1CCN(C(=O)C(C)c2ccc([N+](=O)[O-])cc2)CC1 (stereo not given),> 50.3 µg/mL
17,CCOc1ccccc1NC(=S)NC(=O)c1ccco1,1.9 µg/mL
18,O=C(Nc1nc2ccccc2[nH]1)c1ccc(Cl)cc1,1.8 µg/mL
19,O=C(CCC(=O)N1CCN(S(=O)(=O)c2ccccc2)CC1)c1ccc(Br)cc1,6.9 µg/mL
20,Cc1ccc(C2NC(=O)c3ccccc3O2)cc1 (stereo not given),10.6 µg/mL
21,CC1CCCC(C)N1C(=O)COC(=O)c1ccc(S(=O)(=O)N(C)c2ccccc2)cc1 (stereo not given),6.9 µg/mL
22,COc1cc(Cl)c(S(=O)(=O)N2CCCC2)cc1Cl,42.1 µg/mL
23,COC(=O)c1[nH]c2ccccc2c1NC(=O)c1ccccc1F,2.1 µg/mL
24,O=C(Nc1ccc(F)cc1)C1CCN(C(=O)c2ccc(F)cc2)CC1,> 51.7 µg/mL

row,Compound,solubility kinetic
1,COc1ccc(CNC(=O)CSc2nc3cccnc3s2)cc1,36.3 µg/mL
2,COc1ccc2[nH]c3c(NCCCOC(C)C)ncnc3c2c1,44.7 µg/mL
3,CCN(C(=O)CSc1nccc(=O)[nH]1)c1cccc2ccccc12,> 50.9 µg/mL
4,CC1CCCCC12NC(=O)N(CC(=O)N1CCN(c3ccccc3)CC1)C2=O (stereo not given),> 57.7 µg/mL
5,CCc1ccccc1N1C(=O)[C@@H]2Cc3ccccc3CN2C1=O,43.1 µg/mL
6,COc1cccc(NC(=O)Nc2cccnc2)c1,> 36.5 µg/mL
7,COc1ccc(CCOC(=O)c2ccc(N)c([N+](=O)[O-])c2)cc1,1.1 µg/mL
8,CCN1CCN(C(=O)C(C)Sc2nc3nc(C)cc(C)n3n2)CC1 (stereo not given),> 52.3 µg/mL
9,CS(=O)(=O)N1CCSC1c1ccc(Br)cc1 (stereo not given),47.8 µg/mL
10,CC(Sc1nccn1C)C(=O)NC1(C#N)CCCCC1 (stereo not given),> 43.9 µg/mL
11,COC(=O)c1ccccc1NC(=O)c1ccc[nH+]c1.[Cl-],> 43.9 µg/mL
12,Cc1cc(/C=C2\NC(=O)NC2=O)c(C)n1-c1cccnc1,40.2 µg/mL
13,CCOC(=O)N1CCN(CCC(=O)Nc2ccc(F)c(F)c2)CC1,> 51.2 µg/mL
14,O=C(COC(=O)c1ccc(Cl)c(Cl)c1)NC1CCCC1,2 µg/mL
15,CN(CCc1cnn(C)c1)Cc1cn(C)nc1-c1ccccc1F,> 49.1 µg/mL
16,O=C(CSc1ccccc1)Nc1ccc2c(c1)OCO2,41.8 µg/mL
17,CC1CCN(C(=O)COC(=O)c2cccs2)CC1,> 40.1 µg/mL
18,O=C(c1cc(-c2ccccc2Cl)on1)N1CCCC1,> 41.5 µg/mL
19,COc1ccc(C(=O)NCCN2CCCC2)cc1.Cl,> 42.7 µg/mL
20,CNc1nc2c(N)ncnc2n1[C@H]1O[C@@H](CO)[C@H](O)[C@@H]1O,> 44.4 µg/mL
21,O=C1C(=O)N(CCCc2ccccc2)c2ccccc21,32.5 µg/mL
22,CC(C)(C)Sc1ccc([N+](=O)[O-])cc1C(=O)Nc1ccncc1,> 49.7 µg/mL
23,COc1ccc(CC(=O)NCCc2cnc[nH]2)cc1,> 38.9 µg/mL
24,Cn1cc(S(=O)(=O)N2CCOCC2)cc1C(=O)O,> 41.1 µg/mL
